In ChEMBL document CHEMBL4825735, “Estimation of the lipophilicity of purine-2,6-dione-based TRPA1 antagonists and PDE4/7 inhibitors with analgesic activity” (Bioorg Med Chem Lett, 2021):

Legend:
[1] = Relative lipophilicity of the compound in methanol assessed as retardation factor by reversed-phase TLC analysis; assay type: physicochemical
[2] = Lipophilicity, logP of compound by shake flask method; assay type: physicochemical; conditions: octanol/water

**Q.** With COc1nc2c(c(=O)n(C)c(=O)n2C)n1CC(=O)Nc1ccc(C(C)(C)C)cc1 as the molecule, how does the Rm [1] read?
**A.** 3.92

**Q.** With COc1nc2c(c(=O)n(C)c(=O)n2C)n1CCCC(=O)Nc1ccc(C(C)(C)C)cc1 as the molecule, how does the Rm [1] read?
**A.** 3.82

**Q.** Which Rm [1] does the source give for CCCOc1nc2c(c(=O)n(C)c(=O)n2C)n1CCCC(=O)Nc1ccc(C(C)CC)cc1 (configuration not stated) here?
**A.** 4.86

**Q.** With CCCOc1nc2c(c(=O)n(C)c(=O)n2C)n1CCCC(=O)Nc1ccc(C(C)(C)C)cc1 as the molecule, how does the Rm [1] read?
**A.** 4.81

**Q.** With COc1nc2c(c(=O)n(C)c(=O)n2C)n1CC(=O)Nc1ccc(C(C)C)cc1 as the molecule, how does the Rm [1] read?
**A.** 3.28

**Q.** With CCOc1nc2c(c(=O)n(C)c(=O)n2C)n1CCCC(=O)Nc1ccc(C(C)C)cc1 as the molecule, how does the Rm [1] read?
**A.** 4.4

**Q.** With CCOc1nc2c(c(=O)n(C)c(=O)n2C)n1CC(=O)Nc1ccc(C(C)(C)C)cc1 as the molecule, how does the Rm [1] read?
**A.** 3.99

**Q.** For CCOc1nc2c(c(=O)n(C)c(=O)n2C)n1CCCC(=O)Nc1ccc(C(C)(C)C)cc1, which Rm [1] is on record?
**A.** 3.84

**Q.** Which Rm [1] does the source give for CCCOc1nc2c(c(=O)n(C)c(=O)n2C)n1CCCC(=O)Nc1ccc(C(C)C)cc1 here?
**A.** 4.4

**Q.** For CCCCOc1nc2c(c(=O)n(C)c(=O)n2C)n1CCCC(=O)Nc1ccc(C(C)CC)cc1 (configuration not stated), which Rm [1] is on record?
**A.** 4.7

**Q.** Which Rm [1] does the source give for CCOc1nc2c(c(=O)n(C)c(=O)n2C)n1CC(=O)Nc1ccc(C(C)C)cc1 here?
**A.** 3.86

**Q.** For COc1nc2c(c(=O)n(C)c(=O)n2C)n1CCCC(=O)Nc1ccc(C(C)C)cc1, which Rm [1] is on record?
**A.** 3.8

**Q.** For CCCCOc1nc2c(c(=O)n(C)c(=O)n2C)n1CCCC(=O)Nc1cc(C(C)CC)ccc1O (configuration not stated), which Rm [1] is on record?
**A.** 4.87

**Q.** Which Rm [1] does the source give for CCCOc1nc2c(c(=O)n(C)c(=O)n2C)n1CCCC(=O)Nc1cc(C(C)CC)ccc1O (configuration not stated) here?
**A.** 4.52

**Q.** Which Rm [1] does the source give for CC(=O)Nc1ccc(O)cc1 [ACETAMINOPHEN] here?
**A.** 0.31

**Q.** Which Rm [1] does the source give for CCC1(CC)C(=O)NC(=O)NC1=O [BARBITAL] here?
**A.** 0.8

**Q.** For CCOC(=O)c1ccc(N)cc1 [BENZOCAINE], which Rm [1] is on record?
**A.** 1.92

**Q.** With O=C(CCCN1CCC(O)(c2ccc(Cl)cc2)CC1)c1ccc(F)cc1 [HALOPERIDOL] as the molecule, how does the Rm [1] read?
**A.** 3.61

**Q.** With CCN(CC)CC(=O)Nc1c(C)cccc1C [LIDOCAINE] as the molecule, how does the Rm [1] read?
**A.** 1.31

**Q.** For COc1ccc(Cc2nccc3cc(OC)c(OC)cc23)cc1OC [PAPAVERINE], which logP [2] is on record?
**A.** 3

**Q.** What about the Rm [1] of the same molecule?
**A.** 2.79

**Q.** For CCC1(c2ccccc2)C(=O)NC(=O)NC1=O [PHENOBARBITAL], which Rm [1] is on record?
**A.** 1.9

**Q.** Which Rm [1] does the source give for O=C1NC(=O)C(c2ccccc2)(c2ccccc2)N1 [PHENYTOIN] here?
**A.** 2.43

**Q.** For C[C@]12C=CC(=O)C=C1CC[C@@H]1[C@@H]2[C@@H](O)C[C@@]2(C)[C@H]1CC[C@]2(O)C(=O)CO [PREDNISOLONE], which Rm [1] is on record?
**A.** 2.49

**Q.** With Cn1cnc2c1c(=O)[nH]c(=O)n2C [THEOBROMINE] as the molecule, how does the Rm [1] read?
**A.** 0.26

**Q.** With Cn1c(=O)c2[nH]cnc2n(C)c1=O.O [THEOPHYLLINE] as the molecule, how does the Rm [1] read?
**A.** 0.61

**Q.** With O=c1n(CCCN2CCN(c3cccc(Cl)c3)CC2)nc2ccccn12 [TRAZODONE] as the molecule, how does the Rm [1] read?
**A.** 2.65
